Test results as given in ChEMBL document CHEMBL1201862, “PubChem BioAssay data set” (2004).
Blank lines part the entries; values can stand above or below the compound they belong to. Active and inactive are the calls of the source.

Legend:
[1] = reduction of Shn3 3'UTR firefly luciferase signal, dose response, Schnurri-3 inhibitor project, cell-based, Clone20 osteoblasts, cherry-pick, set 2 (AID 720490); assay type: functional;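 note: actives lower the luminescence signal as inhibitors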
[2] = Shn3 3'UTR reporter inhibitors, dose response, cell-based, Clone20 osteoblasts, firefly luciferase, cherry-picked (AID 624132); assay type: functional;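 note: firefly luciferase luminescence from reporter carrying the Shn3 3'UTR in osteoblasts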
[3] = Late stage counterscreen for inhibitors of Trypanosoma brucei methionyl tRNA synthetase (MetRS): Luminescence-based cell-based high throughput dose response assay to identify compounds that are cytotoxic to Jurkat human T lymphocyte cells.; assay type: functional
[4] = Artemis endonuclease inhibitor potency, dose response, biochemical, fluorescence intensity (AID 720701); assay type: functional;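 note: Artemis endonuclease enzyme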
Kallikrein-7 = Kallikrein-7 (Homo sapiens, UniProt P49862); assay: Fluorescence Intensity-based biochemical primary high throughput dose response assay to identify activators of kallikrein-7 (K7) zymogen.
Hexokinase-1 = target: T1, Hexokinase-1 (Homo sapiens, UniProt P19367); assay: hexokinase 1 activators, dose response, selectivity assay for HKDC1 activator project, biochemical (AID 504762); assay type: functional
T1 sequence (P19367 whole entry): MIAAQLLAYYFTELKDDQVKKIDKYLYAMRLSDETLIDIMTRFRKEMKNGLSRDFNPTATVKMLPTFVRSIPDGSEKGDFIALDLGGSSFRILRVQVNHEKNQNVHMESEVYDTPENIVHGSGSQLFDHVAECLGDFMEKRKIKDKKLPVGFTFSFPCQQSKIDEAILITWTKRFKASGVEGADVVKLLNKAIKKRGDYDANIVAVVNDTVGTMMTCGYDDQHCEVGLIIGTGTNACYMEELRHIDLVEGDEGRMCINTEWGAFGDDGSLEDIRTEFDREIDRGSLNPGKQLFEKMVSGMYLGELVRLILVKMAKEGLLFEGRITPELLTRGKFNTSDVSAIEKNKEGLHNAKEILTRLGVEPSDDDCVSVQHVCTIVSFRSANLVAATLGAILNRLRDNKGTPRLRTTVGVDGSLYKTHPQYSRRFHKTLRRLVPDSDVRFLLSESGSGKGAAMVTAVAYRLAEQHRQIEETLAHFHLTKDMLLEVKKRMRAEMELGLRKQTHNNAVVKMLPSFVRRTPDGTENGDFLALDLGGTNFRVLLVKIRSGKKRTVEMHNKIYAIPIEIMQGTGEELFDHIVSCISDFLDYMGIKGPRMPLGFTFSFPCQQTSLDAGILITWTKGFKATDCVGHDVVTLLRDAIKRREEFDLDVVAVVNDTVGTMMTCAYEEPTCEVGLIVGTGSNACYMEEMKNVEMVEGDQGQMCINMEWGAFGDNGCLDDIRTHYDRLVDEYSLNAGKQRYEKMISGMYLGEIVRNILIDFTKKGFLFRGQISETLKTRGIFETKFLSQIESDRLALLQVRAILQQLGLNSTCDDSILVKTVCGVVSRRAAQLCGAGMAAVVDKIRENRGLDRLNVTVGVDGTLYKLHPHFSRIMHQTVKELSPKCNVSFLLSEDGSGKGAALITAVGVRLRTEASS

[5] = target: Tyrosyl-DNA phosphodiesterase 2 (Homo sapiens, UniProt O95551); assay: human TDP2 enzyme inhibitors, dose response, biochemical, epi absorbance, IC50 (AID 743297)
Paired box protein Pax-8 = Paired box protein Pax-8 (Homo sapiens, UniProt Q06710); assay: inhibitors of PAX8-driven TPO luciferase reporter, dose response, RMG-I cells, cherry-pick (AID 687027); assay type: functional, cell-based;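 note: luciferase reporter driven by Pax8 target thyroperoxidase promoter measured by SteadyGlo luminescence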
[6] = non-specific cell cytotoxicity, dose response, cytotoxicity control for PAX8 inhibitor project, plate reader, dry powder samples (AID 743021); assay type: functional, cell-based
[7] = target: 1-phosphatidylinositol 4,5-bisphosphate phosphodiesterase beta-3 (Homo sapiens, UniProt Q01970); assay: Fluorescence-based biochemical high throughput dose response assay to identify inhibitors of phospholipase C isozymes (PLC-B3).
Hexokinase HKDC1 = target: T2, Hexokinase HKDC1 (Homo sapiens, UniProt Q2TB90); assay: HKDC1 hexokinase activators, dose response, biochemical, W721R variant (AID 504730); assay type: functional
T2 sequence (Q2TB90 whole entry): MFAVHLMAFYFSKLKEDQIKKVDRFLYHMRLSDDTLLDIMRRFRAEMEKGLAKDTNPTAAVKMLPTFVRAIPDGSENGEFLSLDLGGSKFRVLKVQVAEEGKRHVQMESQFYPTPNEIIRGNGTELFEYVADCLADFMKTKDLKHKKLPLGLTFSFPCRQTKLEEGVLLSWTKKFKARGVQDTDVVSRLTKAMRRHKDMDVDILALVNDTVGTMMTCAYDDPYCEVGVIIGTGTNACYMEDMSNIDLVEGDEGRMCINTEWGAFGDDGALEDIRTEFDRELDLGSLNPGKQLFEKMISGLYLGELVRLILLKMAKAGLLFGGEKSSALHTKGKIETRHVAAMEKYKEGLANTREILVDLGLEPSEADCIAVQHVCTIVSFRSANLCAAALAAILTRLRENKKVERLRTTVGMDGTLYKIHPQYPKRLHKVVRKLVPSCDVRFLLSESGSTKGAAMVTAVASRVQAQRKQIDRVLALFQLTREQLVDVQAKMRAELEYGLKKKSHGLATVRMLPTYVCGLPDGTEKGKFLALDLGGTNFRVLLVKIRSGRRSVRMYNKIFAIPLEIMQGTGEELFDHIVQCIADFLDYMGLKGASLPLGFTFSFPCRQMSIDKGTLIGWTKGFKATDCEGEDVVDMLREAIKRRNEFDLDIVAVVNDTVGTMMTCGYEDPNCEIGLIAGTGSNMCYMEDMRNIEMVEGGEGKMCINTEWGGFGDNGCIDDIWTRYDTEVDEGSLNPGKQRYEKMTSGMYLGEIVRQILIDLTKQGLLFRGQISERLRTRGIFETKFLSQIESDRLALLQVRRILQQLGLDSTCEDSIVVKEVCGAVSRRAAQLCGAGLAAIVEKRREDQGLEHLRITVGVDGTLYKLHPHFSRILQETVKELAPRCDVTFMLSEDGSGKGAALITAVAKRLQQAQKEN

[8] = target: 1-phosphatidylinositol 4,5-bisphosphate phosphodiesterase gamma-1 (Homo sapiens, UniProt P19174); assay: Counterscreen for inhibitors of phospholipase C isozymes (PLC-B3): Fluorescence-based biochemical high throughput dose response assay to identify inhibitors of phospholipase C isozymes (PLC-gamma1).
[9] = target: T3, Histone-lysine N-methyltransferase NSD2 (Homo sapiens, UniProt O96028); assay type: biochemical
T3 sequence (O96028 whole entry): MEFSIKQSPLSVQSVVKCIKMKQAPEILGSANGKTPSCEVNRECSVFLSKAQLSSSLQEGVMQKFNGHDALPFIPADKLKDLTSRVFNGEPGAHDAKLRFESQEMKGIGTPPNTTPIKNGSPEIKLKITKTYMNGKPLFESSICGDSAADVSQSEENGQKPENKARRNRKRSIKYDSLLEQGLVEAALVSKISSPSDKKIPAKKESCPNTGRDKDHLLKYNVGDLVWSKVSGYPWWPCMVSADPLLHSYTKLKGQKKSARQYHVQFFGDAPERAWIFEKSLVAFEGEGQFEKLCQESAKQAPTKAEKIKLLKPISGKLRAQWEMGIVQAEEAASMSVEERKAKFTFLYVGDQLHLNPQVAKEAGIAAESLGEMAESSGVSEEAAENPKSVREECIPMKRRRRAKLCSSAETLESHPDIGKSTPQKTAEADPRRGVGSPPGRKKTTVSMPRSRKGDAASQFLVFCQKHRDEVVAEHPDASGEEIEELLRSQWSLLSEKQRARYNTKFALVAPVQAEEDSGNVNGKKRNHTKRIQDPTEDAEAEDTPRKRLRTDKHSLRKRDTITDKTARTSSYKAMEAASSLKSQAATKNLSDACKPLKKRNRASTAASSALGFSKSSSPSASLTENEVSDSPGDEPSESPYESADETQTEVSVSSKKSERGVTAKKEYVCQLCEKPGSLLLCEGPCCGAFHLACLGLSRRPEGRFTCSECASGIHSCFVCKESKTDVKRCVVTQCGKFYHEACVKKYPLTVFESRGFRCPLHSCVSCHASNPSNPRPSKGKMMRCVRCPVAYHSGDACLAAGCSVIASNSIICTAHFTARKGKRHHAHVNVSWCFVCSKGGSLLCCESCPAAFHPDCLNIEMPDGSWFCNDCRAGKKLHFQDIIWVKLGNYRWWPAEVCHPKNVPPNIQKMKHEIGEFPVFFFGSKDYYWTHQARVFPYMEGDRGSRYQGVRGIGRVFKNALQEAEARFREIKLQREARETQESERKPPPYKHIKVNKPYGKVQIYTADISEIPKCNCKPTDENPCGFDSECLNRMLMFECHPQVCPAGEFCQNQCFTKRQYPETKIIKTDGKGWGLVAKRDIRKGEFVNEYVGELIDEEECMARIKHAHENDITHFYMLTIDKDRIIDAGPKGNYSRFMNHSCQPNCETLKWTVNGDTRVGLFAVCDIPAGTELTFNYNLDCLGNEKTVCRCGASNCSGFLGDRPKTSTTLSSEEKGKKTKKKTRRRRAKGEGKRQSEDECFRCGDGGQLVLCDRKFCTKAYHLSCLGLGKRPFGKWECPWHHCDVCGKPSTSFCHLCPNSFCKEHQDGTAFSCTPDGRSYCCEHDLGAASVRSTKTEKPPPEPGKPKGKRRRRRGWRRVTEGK

[10] = target: T4, NAD-dependent protein deacylase sirtuin-5, mitochondrial (Homo sapiens, UniProt Q9NXA8); assay: SIRT5 deacylase inhibitors, dose response, biochemical, fluorescence imaging, cherry-pick, set 6 (AID 720597)
[11] = inhibitors of PGC1a acetylation in cells, dose response, cell-based, cherry-picked samples (AID 720514); assay type: functional;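 note: potency may reflect raised or lowered acetylation signal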
[12] = A375 melanoma cell viability loss, dose response, counter-screen for MITF inhibitor project, CellTiter-Glo luminescence, dry powder, set 4 (AID 624364); assay type: functional, cell-based; settings: A-375;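 note: A375 melanoma cells are MITF independent so this is a counter screen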
[13] = A375 melanoma cell cytotoxicity, dose response, counter-screen for MITF inhibitor project, CellTiter-Glo luminescence, dry powder, set 2 (AID 624489); assay type: functional, cell-based; settings: A-375;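 note: actives are compounds lowering A375 viability meaning general cytotoxicity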
[14] = growth inhibition of intracellular T. cruzi, dose response, cell-based, plate reader, dry powder samples (AID 651845); assay type: functional
[15] = T. cruzi growth inhibition in host cells, dose response, cell-based, plate reader, dry powder, set 2 (AID 652275); assay type: functional
[16] = T. cruzi intracellular amastigote growth inhibition, dose response, imaging, CA-I/72 strain, bovine embryo skeletal muscle, dry powder (AID 651885); assay type: functional, cell-based
Vasopressin V2 receptor = Vasopressin V2 receptor (Homo sapiens, UniProt P30518); assay: Late-stage results from the probe development effort to identify antagonists of arginine vasopressin receptor 1a (AVPR1a): fluorescence-based cell-based dose response AVPR2 inhibition counterscreen assay.; assay type: functional
[17] = Late-stage results from the probe development effort to identify antagonists of arginine vasopressin receptor 1a (AVPR1a): fluorescence-based cell-based dose response AVPR1a inhibition assay.; assay type: functional
Vasopressin V1b receptor = Vasopressin V1b receptor (Homo sapiens, UniProt P47901); assay: Late-stage results from the probe development effort to identify antagonists of arginine vasopressin receptor 1a (AVPR1a): fluorescence-based cell-based dose response AVPR1b inhibition counterscreen assay.; assay type: functional
[18] = Late-stage results from the probe development effort to identify antagonists of arginine vasopressin receptor 1a (AVPR1a): fluorescence-based cell-based dose response OXTR inhibition counterscreen assay.; assay type: functional
[19] = target: T4, NAD-dependent protein deacylase sirtuin-5, mitochondrial; assay: SIRT5 desuccinylase inhibitors, dose response, biochemical, fluorescence imaging, cherry-pick, set 5 (AID 720591);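 note: desuccinylation of succinyl peptide AMC substrate read as fluorescence after trypsin release; potency of inhibitors that lower fluorescence and may act on trypsin instead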
[20] = HepG2 cell cytotoxicity, dose response, cytotoxicity control, luminescence plate reader, powder samples, set 2 (AID 651860); assay type: functional, cell-based

T4 sequence (Q9NXA8 whole entry): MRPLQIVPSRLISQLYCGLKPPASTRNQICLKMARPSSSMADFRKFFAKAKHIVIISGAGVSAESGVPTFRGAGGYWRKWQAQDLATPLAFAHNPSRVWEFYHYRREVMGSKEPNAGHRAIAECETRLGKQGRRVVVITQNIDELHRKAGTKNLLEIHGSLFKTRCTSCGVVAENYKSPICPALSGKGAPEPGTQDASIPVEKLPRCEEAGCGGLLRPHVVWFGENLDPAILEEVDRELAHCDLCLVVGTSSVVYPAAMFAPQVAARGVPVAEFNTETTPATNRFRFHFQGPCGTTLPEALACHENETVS
Paired box protein Pax-8, sequence (Q06710 whole entry): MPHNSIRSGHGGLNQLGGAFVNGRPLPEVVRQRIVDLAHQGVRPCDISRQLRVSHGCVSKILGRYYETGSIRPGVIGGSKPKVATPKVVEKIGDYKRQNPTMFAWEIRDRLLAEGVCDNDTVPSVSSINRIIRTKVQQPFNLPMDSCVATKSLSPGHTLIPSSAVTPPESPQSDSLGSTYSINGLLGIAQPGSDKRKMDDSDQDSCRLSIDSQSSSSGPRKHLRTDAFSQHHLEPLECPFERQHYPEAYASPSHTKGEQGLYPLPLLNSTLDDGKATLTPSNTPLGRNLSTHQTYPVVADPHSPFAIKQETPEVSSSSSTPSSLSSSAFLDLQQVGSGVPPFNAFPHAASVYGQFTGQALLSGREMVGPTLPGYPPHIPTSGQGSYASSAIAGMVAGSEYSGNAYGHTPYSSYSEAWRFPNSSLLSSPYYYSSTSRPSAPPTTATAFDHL
Vasopressin V1b receptor, sequence (P47901 whole entry): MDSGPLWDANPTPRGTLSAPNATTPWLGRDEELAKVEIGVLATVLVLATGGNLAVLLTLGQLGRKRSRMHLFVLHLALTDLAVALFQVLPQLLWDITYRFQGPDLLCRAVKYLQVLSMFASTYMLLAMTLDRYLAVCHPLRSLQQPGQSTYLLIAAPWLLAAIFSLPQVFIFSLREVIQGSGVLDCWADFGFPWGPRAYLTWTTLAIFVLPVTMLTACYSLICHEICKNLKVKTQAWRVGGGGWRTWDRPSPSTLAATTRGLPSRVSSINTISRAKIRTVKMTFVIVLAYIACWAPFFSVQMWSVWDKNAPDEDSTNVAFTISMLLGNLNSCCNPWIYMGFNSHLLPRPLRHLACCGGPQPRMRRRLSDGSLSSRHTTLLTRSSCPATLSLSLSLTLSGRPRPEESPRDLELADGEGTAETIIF
Tyrosyl-DNA phosphodiesterase 2, sequence (O95551 whole entry): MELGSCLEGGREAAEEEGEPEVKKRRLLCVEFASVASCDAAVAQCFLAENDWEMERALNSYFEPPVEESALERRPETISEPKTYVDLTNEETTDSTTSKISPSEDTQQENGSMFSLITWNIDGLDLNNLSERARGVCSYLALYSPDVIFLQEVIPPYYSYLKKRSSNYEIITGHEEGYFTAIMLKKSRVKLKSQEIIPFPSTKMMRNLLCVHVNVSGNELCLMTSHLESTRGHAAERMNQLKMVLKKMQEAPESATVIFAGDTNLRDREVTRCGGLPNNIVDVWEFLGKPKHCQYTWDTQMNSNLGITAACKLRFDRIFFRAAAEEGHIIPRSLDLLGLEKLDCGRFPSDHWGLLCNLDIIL
Kallikrein-7, sequence (P49862 whole entry): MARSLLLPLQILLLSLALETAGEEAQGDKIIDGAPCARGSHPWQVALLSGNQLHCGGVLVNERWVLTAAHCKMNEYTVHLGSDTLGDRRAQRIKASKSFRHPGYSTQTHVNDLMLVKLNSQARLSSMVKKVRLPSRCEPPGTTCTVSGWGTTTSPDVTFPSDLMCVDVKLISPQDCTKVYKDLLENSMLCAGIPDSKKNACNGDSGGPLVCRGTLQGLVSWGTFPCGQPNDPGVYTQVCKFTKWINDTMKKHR
1-phosphatidylinositol 4,5-bisphosphate phosphodiesterase beta-3, sequence (Q01970 whole entry): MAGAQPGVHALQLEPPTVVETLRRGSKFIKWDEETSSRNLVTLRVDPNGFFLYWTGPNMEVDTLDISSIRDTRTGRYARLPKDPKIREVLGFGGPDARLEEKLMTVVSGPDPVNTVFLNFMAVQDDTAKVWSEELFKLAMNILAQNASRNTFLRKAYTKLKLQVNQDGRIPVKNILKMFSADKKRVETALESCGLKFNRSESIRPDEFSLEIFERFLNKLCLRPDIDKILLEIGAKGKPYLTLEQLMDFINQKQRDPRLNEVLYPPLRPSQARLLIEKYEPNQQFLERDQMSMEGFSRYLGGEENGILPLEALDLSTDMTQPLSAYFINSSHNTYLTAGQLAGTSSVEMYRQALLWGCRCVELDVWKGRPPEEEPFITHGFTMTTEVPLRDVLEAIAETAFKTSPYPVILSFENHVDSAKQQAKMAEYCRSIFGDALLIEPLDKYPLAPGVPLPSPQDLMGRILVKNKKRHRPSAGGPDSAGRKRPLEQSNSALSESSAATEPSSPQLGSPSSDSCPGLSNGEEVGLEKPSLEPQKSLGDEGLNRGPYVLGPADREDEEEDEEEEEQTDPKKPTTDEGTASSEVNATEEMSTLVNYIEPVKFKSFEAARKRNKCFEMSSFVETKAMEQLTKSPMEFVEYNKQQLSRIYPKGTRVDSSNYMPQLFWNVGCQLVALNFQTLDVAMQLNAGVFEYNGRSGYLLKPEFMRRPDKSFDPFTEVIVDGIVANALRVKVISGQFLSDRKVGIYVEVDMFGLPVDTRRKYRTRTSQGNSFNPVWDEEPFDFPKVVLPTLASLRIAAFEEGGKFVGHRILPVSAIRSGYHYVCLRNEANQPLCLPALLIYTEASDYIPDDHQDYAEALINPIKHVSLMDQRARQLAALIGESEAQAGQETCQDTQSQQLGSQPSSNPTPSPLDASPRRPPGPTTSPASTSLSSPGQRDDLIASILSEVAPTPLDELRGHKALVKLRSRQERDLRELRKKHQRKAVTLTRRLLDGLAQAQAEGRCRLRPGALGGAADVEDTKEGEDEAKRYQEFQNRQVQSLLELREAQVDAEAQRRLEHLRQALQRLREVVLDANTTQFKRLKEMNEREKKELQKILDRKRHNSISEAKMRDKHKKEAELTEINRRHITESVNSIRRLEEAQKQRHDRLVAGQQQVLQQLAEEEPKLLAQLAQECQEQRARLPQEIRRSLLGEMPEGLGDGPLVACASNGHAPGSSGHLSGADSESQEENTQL
1-phosphatidylinositol 4,5-bisphosphate phosphodiesterase gamma-1, sequence (P19174 whole entry): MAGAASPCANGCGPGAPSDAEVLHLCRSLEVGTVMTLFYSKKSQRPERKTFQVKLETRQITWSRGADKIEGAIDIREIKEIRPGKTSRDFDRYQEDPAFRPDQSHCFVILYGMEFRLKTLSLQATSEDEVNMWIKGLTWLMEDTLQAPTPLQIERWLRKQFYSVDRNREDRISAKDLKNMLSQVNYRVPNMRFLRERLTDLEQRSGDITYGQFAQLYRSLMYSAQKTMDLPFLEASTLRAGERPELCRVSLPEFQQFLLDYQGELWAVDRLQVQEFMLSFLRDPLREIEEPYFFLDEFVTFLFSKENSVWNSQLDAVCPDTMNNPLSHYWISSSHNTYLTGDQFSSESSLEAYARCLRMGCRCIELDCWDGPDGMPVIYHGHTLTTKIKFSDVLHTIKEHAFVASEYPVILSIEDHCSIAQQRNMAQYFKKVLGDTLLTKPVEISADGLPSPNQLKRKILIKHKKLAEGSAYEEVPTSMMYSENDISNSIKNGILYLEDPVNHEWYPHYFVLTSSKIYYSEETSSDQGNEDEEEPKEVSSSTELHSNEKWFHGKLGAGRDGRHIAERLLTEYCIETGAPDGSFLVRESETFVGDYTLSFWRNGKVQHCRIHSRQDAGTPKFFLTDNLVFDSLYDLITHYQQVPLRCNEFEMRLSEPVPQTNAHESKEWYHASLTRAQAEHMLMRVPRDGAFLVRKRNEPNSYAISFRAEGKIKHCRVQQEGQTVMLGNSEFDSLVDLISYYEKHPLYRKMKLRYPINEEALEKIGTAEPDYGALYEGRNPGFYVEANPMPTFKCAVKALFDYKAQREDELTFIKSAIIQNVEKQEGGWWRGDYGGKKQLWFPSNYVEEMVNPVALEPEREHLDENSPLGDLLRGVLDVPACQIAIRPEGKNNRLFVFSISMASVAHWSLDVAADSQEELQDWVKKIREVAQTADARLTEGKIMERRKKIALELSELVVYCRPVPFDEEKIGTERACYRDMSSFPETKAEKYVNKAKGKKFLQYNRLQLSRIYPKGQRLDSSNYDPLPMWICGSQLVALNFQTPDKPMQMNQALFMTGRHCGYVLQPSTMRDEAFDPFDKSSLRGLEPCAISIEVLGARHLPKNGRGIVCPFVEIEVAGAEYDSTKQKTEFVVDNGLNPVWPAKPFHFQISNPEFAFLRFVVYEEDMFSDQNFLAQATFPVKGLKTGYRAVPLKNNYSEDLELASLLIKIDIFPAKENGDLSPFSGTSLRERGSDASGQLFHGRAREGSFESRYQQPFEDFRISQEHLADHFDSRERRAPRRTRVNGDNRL
Vasopressin V2 receptor, sequence (P30518 whole entry): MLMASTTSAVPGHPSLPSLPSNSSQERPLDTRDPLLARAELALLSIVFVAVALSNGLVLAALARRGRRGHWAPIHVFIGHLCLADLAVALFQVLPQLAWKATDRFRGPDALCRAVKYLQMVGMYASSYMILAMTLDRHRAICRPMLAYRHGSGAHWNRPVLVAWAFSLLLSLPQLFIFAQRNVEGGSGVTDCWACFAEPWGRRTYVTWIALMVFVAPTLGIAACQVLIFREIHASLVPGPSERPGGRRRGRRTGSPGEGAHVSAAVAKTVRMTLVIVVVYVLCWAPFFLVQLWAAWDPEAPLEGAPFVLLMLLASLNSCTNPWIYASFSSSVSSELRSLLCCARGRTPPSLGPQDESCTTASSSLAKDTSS

Structure (SMILES): CC(Oc1ccc(F)cc1)C(=O)N(CCC1=CCCCC1)c1c(N)n(Cc2ccccc2)c(=O)[nH]c1=O (stereo unspecified)
AC50 [1]: 22.6 µM (active)
AC50 [2]: 7.99 µM (active)

Structure (SMILES): CC(CC(=O)Nc1cccc(Br)c1)=NNC(=O)c1ccc(O)cc1O
IC50 [3]: > 83.3 µM (inactive)

IC50 [4]: 17.3 µM (active)
Structure (SMILES): Cc1ccc(CNC(=O)c2cc3c(=O)n4ccccc4nc3n(Cc3ccco3)c2=N)cc1

EC50 (Kallikrein-7): 8.78 µM (active)
Structure (SMILES): CC(=O)Nc1ccc2[nH]c(-c3cccs3)nc2c1

Structure (SMILES): NC1=C(Cl)C(=O)c2ccc(S(N)(=O)=O)cc2C1=O
EC50 (Hexokinase-1): 1.06 µM (active)
IC50 [5]: 1.07 µM (active)
AC50 (Paired box protein Pax-8): 1.47 µM (active)
AC50 [6]: 8.31 µM (active)
IC50 [7]: > 122 µM (inactive)
EC50 (Hexokinase HKDC1): > 80 µM (inactive)
IC50 [8]: > 122 µM (inactive)
AC50 [9]: 144 nM (active)

AC50 [10]: 26.7 µM (active)
Structure (SMILES): C[C@@H]1CN([C@H](C)CO)C(=O)CCCn2nncc2CO[C@H]1CN(C)S(=O)(=O)c1ccc(Cl)cc1

Structure (SMILES): CC(C)NC(=O)Nc1ccc2c(c1)C(=O)N([C@@H](C)CO)C[C@H](C)[C@@H](CN(C)C(=O)CCC(F)(F)F)OCCCC[C@@H](C)O2
AC50 [11]: 38 µM (active)

Structure (SMILES): O=C1C(NS(=O)(=O)c2cccs2)=C(N2CCCCC2)C(=O)c2ccccc21
AC50 [12]: > 70 µM (inactive)
AC50 [13]: > 70 µM (inactive)

Structure (SMILES): CC(C)N(C)C(=O)c1cccc(NC(=O)c2ccncc2)c1OCCCN(C)Cc1ccc(Oc2ccccc2)cc1
AC50 [14]: 386 nM (active)
AC50 [15]: 381 nM (active)
IC50 [16]: 10.1 µM (inconclusive)

Structure (SMILES): Cc1ccc(N(CC2CC2)C(=O)N2CCN(c3ccccc3C)CC2)cc1
IC50 (Vasopressin V2 receptor): 2.22 µM (active)
IC50 [17]: 6.9 nM (active)
IC50 (Vasopressin V1b receptor): 17.6 µM (inactive)
IC50 [18]: 82 nM (active)

AC50 [19]: > 30 µM (inactive)
Structure (SMILES): COc1ccc(CN2C(=O)C(CC(=O)NCCc3ccccn3)CC(C(=O)N3CCOCC3)=C2C)cc1 (stereo unspecified)

Structure (SMILES): NC(=O)[C@H]1CCCC[C@H]1C(=O)N1CCc2ccccc2[C@H]1CN1C(=O)c2ccccc2C1=O
AC50 [20]: > 52 µM (inactive)
